Converted amounts (≈) assume the structure as drawn.
Experiments:
WST-1 cytotoxicity assay = type: cell-based, human; conditions: human, differentiated HepaRG cells, WST-1 assay, 72 h incubation
Protocol: (§1) Wild-type human hepatoma HepaRG cells obtained from Biopredic International (Saint Grégoire, France) were cultivated for 4 weeks in a Binder cell culture incubator maintained at 37 °C in a 5% humidified atmosphere with 5% CO2 before they were employed in this study. The 4 weeks consisted of 2 weeks of proliferation and 2 weeks of differentiation. […]
(§2) Cytotoxicity assays were performed in 96-well plates at a density of 9000 cells per well, and test compounds were incubated for 72 h. […] After the 30-min incubation with WST-1, absorbance was measured at 450 nm corrected by a reference at 620 nm (λexc = 450 nm/λemi = 620 nm) using an Infinite M200 PRO plate reader (Tecan; Männedorf, Switzerland). […] The absorbed dye was quantified by fluorescence measurement (λexc = 530 nm/λemi = 645 nm) on an Infinite M200 PRO plate reader (Tecan; Männedorf, Switzerland). Background corrected viability values of both assays were expressed as a percentage of untreated cells. […] Means and standard deviations for each treatment were calculated. […]

[1] = CYP450 reaction phenotyping, control-Silensomes; type: in vitro ADME, human
Description: (§3) Silensomes™ CYP phenotyping kits (Lonza; Basel, Switzerland) contain human pooled liver microsomes (HLM) that are chemically and irreversibly inactivated by mechanism-based inhibitor for each specific CYP450 isoenzyme. Each CYP-Silensomes™ has a corresponding control that is produced the same way without inactivation. […] However, CYP2C19-Silensomes™ were not available for purchasing. The assay was essentially performed according to the instructions of the supplier. […] At 0, 10, 20, 30, and 45 min, 50 µL of the reaction volume was removed and put in a tube containing 50 µL of methanol to stop the CYP reactions. The tubes were allowed to stand at 4 °C for 1 h to allow protein precipitation to occur. Afterwards, the tubes were centrifuged at 3500 × g for 15 min at 4 °C before the supernatant was removed and analyzed using LC–MS/MS. The control experiments with the control HLM were performed at the same time as the Silensomes™. The in vitro intrinsic clearance (Clint) for each enzyme was calculated as follows: Clint (µL/min/mg) = (slope × V)/P, where the slope is the elimination rate constant (min^−1) for exponential substrate loss, V is the incubation volume (µL), and P is the microsomal protein (mg). The fraction metabolized by each CYP enzymes was determined as follows: fm = (1 – (Clint CYP-Silensomes™/Clint Control-Silensomes™)) × 100. […]

CYP2C9 [2] = test: CYP450 reaction phenotyping, CYP2C9-Silensomes; type: in vitro ADME; conditions: human, pH 7.4
Description: as §3

CYP2C9 [3] = conditions: clearance of DIF in healthy human adults; ref Wetmore et al. (2014); cited from earlier work
HepaRG cells [4] = test: Total RNA sequencing, differential gene expression; conditions: 24 h, vs solvent control
CYP1A2 = test: CYP450 reaction phenotyping, CYP1A2-Silensomes; type: in vitro ADME, human
Description: Silensomes™ CYP phenotyping kits (Lonza; Basel, Switzerland) contain human pooled liver microsomes (HLM) that are chemically and irreversibly inactivated by mechanism-based inhibitor for each specific CYP450 isoenzyme. Each CYP-Silensomes™ has a corresponding control that is produced the same way without inactivation. […] However, CYP2C19-Silensomes™ were not available for purchasing. The assay was essentially performed according to the instructions of the supplier. […] At 0, 10, 20, 30, and 45 min, 50 µL of the reaction volume was removed and put in a tube containing 50 µL of methanol to stop the CYP reactions. The tubes were allowed to stand at 4 °C for 1 h to allow protein precipitation to occur. Afterwards, the tubes were centrifuged at 3500 × g for 15 min at 4 °C before the supernatant was removed and analyzed using LC–MS/MS. The control experiments with the control HLM were performed at the same time as the Silensomes™. The in vitro intrinsic clearance (Clint) for each enzyme was calculated as follows: Clint (µL/min/mg) = (slope × V)/P, where the slope is the elimination rate constant (min^−1) for exponential substrate loss, V is the incubation volume (µL), and P is the microsomal protein (mg). The fraction metabolized by each CYP enzymes was determined as follows: fm = (1 – (Clint CYP-Silensomes™/Clint Control-Silensomes™)) × 100. Three independent experiments were conducted with the same batch of Silensomes™.

CYP3A4 [5] = test: CYP450 reaction phenotyping, CYP3A4-Silensomes; type: in vitro ADME, human
Description: as §3

UGT1A4 = conditions: clearance of DIF in healthy human adults; ref Wetmore et al. (2014); cited from earlier work
CYP3A4 [6] = conditions: clearance of DIF in healthy human adults; ref Wetmore et al. (2014); cited from earlier work
[7] = Neutral red uptake (NRU) cytotoxicity assay; type: cell-based, human; conditions: human, differentiated HepaRG cells, NRU assay, 72-h incubation
Protocol: as §1, §2

HepaRG cells [8] = test: Quantification of DIF in cell culture supernatant (LC-MS/MS); conditions: 24-h treatment of HepaRG cells; µg DIF in medium/µg start concentration × 100%
Protocol: HepaRG cells were incubated for 24 h at 37 °C and 5% CO2 in a humidified atmosphere with each test compound in treatment medium of 0.5% final DMSO concentration. After incubation, medium was harvested and cells were washed twice with 0.5 mL PBS, which was added to the harvested medium. Cell lysis was performed on ice by adding 0.55 mL of RIPA Lysis and Extraction Buffer (Thermo Fisher Scientific, Waltham, Massachusetts, USA) in each well. The experiment was conducted in duplicates, which were pooled to make a final volume of 3 mL for medium samples and 1.1 ml of the cell samples for each test compound. The Pierce™ BCA Protein Assay Kit (Thermo Fisher Scientific, Waltham, Massachusetts, USA) was utilized to quantify protein in 50 µL of the cell lysates in order to normalize the measured pesticide concentrations in cells to absolute protein quantities.
Briefly, each of the 1.5 mL of medium samples and 500 µL cell samples was added to 50 mL centrifuge tubes. Up to 5 mL Milli-Q water was added followed by 10 mL acetonitrile. The mixture was shaken vigorously by a vortex mixer for 10 min. […]
Samples from the CYP450 reaction phenotyping and pesticide quantification were analyzed with an Agilent 1290 Infinity II LC system coupled to Agilent 6475 triple quadrupole LC/MS systems (Agilent Technologies; Heilbronn, Germany). […]

[9] = high sub-cytotoxic concentration
[10] = low sub-cytotoxic concentration

With `CC1COC(Cn2cncn2)(c2ccc(Oc3ccc(Cl)cc3)cc2Cl)O1` (centres unmarked) [DIF, difenoconazole] as the molecule, how does the EC50 at 72 h (WST-1 cytotoxicity assay) read?
Its EC50 at 72 h is 11.8 mg/L (≈ 29 µM).

And the “DIF remaining, control-Silensomes” value ([1]; after a 45-min incubation)?
The value was “about 20%”.

What about the microsomal CLint at 1 µM ([1]; human, pH 7.4) of the same molecule?
The microsomal CLint at 1 µM was 15.7 µL/min/mg.

What about the microsomal CLint at 1 µM (CYP2C9 [2]) of the same molecule?
The microsomal CLint at 1 µM was 12.5 µL/min/mg.

What about the CYP2C9 fm (CYP2C9 [3]) of the same molecule?
Its CYP2C9 fm is 5.41%.

And the “ACOX1 log2FoldChange” value (HepaRG cells [4]; [9])?
The value was -0.02489.

And the “AHR log2FoldChange” value (HepaRG cells [4]; [9])?
Its value is 0.5444.

What about the “CD36 log2FoldChange” value (HepaRG cells [4]; [9]) of the same molecule?
The value was -0.5278.

What about the “FASN log2FoldChange” value (HepaRG cells [4]; [9]) of the same molecule?
The value was -0.3325.

What about the “INSIG1 log2FoldChange” value (HepaRG cells [4]; [9]) of the same molecule?
The value was -1.049.

What about the “MLXIPL log2FoldChange” value (HepaRG cells [4]; [9]) of the same molecule?
Its value is 0.2472.

What about the “NR1H2 log2FoldChange” value (HepaRG cells [4]; [9]) of the same molecule?
The value was 0.8621.

And the “NR1H4 log2FoldChange” value (HepaRG cells [4]; [9])?
Its value is -0.4056.

What about the “NR1I2 log2FoldChange” value (HepaRG cells [4]; [9]) of the same molecule?
The value was 0.3067.

What about the “NR1I3 log2FoldChange” value (HepaRG cells [4]; [9]) of the same molecule?
Its value is -1.429.

And the “NR3C1 log2FoldChange” value (HepaRG cells [4]; [9])?
The value was 0.4134.

What about the “PPARA log2FoldChange” value (HepaRG cells [4]; [9]) of the same molecule?
The value was -0.3067.

And the “PPARG log2FoldChange” value (HepaRG cells [4]; [9])?
Its value is 2.421.

And the “RARA log2FoldChange” value (HepaRG cells [4]; [9])?
Its value is 0.4466.

What about the “RARB log2FoldChange” value (HepaRG cells [4]; [9]) of the same molecule?
The value was 1.042.

What about the “RARG log2FoldChange” value (HepaRG cells [4]; [9]) of the same molecule?
Its value is 0.1102.

And the “SCD log2FoldChange” value (HepaRG cells [4]; [9])?
Its value is -0.7403.

What about the “SREBF1 log2FoldChange” value (HepaRG cells [4]; [9]) of the same molecule?
Its value is -1.013.

What about the “ACOX1 log2FoldChange” value (HepaRG cells [4]; [10]) of the same molecule?
The value was 0.1757.

What about the “AHR log2FoldChange” value (HepaRG cells [4]; [10]) of the same molecule?
Its value is -0.129.

What about the “CD36 log2FoldChange” value (HepaRG cells [4]; [10]) of the same molecule?
Its value is 0.878.

And the “FASN log2FoldChange” value (HepaRG cells [4]; [10])?
Its value is 0.4404.

What about the “INSIG1 log2FoldChange” value (HepaRG cells [4]; [10]) of the same molecule?
The value was 1.024.

And the “MLXIPL log2FoldChange” value (HepaRG cells [4]; [10])?
Its value is 0.1497.

What about the “NR1H2 log2FoldChange” value (HepaRG cells [4]; [10]) of the same molecule?
The value was 0.1806.

And the “NR1H4 log2FoldChange” value (HepaRG cells [4]; [10])?
Its value is 0.1474.

And the “NR1I2 log2FoldChange” value (HepaRG cells [4]; [10])?
The value was 0.3965.

What about the “NR1I3 log2FoldChange” value (HepaRG cells [4]; [10]) of the same molecule?
Its value is -0.3855.

What about the “NR3C1 log2FoldChange” value (HepaRG cells [4]; [10]) of the same molecule?
The value was -0.2111.

And the “PPARA log2FoldChange” value (HepaRG cells [4]; [10])?
Its value is 0.07836.

And the “PPARG log2FoldChange” value (HepaRG cells [4]; [10])?
The value was 0.2447.

And the “RARA log2FoldChange” value (HepaRG cells [4]; [10])?
The value was 0.1188.

What about the “RARB log2FoldChange” value (HepaRG cells [4]; [10]) of the same molecule?
The value was 0.3597.

What about the “RARG log2FoldChange” value (HepaRG cells [4]; [10]) of the same molecule?
Its value is 0.07285.

And the “SCD log2FoldChange” value (HepaRG cells [4]; [10])?
Its value is 0.5665.

What about the “SREBF1 log2FoldChange” value (HepaRG cells [4]; [10]) of the same molecule?
Its value is -0.5234.

And the “CYP1A2 fm (fraction metabolized)” value (CYP1A2; Silensomes vs control-Silensomes)?
The value was “≈ 0%”.

And the “DIF remaining, CYP1A2-Silensomes” value (CYP1A2; after a 45-min incubation)?
The value was “about 20%”.

What about the microsomal CLint at 1 µM (CYP1A2; human, pH 7.4) of the same molecule?
The microsomal CLint at 1 µM was 15.8 µL/min/mg.

What about the “CLint, CYP3A4-Silensomes” value (CYP3A4 [5]; 1 µM DIF, 1 mg/mL, 37 °C) of the same molecule?
The value was 9.27 µL x min^−1 × mg^−1.

What about the “DIF remaining, CYP3A4-Silensomes” value (CYP3A4 [5]; after 45 min) of the same molecule?
The value was about 40%.

What about the UGT1A4 fm (UGT1A4) of the same molecule?
Its UGT1A4 fm is 4.55%.

And the CYP3A4 fm (CYP3A4 [6])?
Its CYP3A4 fm is 43.3%.

What about the EC50 at 72 h [7] of the same molecule?
Its EC50 at 72 h is 15.9 mg/L (≈ 39.1 µM).

And the “DIF remaining in the cell culture medium” value (HepaRG cells [8])?
Its value is about 4%.
